These results are taken from patent publication US9351983B2, “Use of glycerophosphoinositols for the treatment of septic shock” (CONSIGLIO NAZIONALE DELLE RICERCHE, priority 2012, dated 2016).

Assay [1] concerns inhibitor of kB, α (IκB-α) gene expression. Description: In vitro model of human inflammation: real-time PCR of IκB-α. In kind it is cell-based. The note with it: 300 μM; 4 h, 14 h, 24 h, 48 h; one donor, preliminary. The method, then:
(§1) FIG. 15—Glycerophosphoinositol modulates the kinetic transcriptional profile of genes involved in the regulation of inflammatory response. Human monocytes were purified from one donor and treated according to the in vitro model of human inflammation, previously described, in absence (blue line) or in presence (red line) of 300 μM glycerophosphoinositol. In detail glycerophosphoinositol was added to cells in culture 20 minutes before LPS, IL-10 and TGF-β, that is, again after each wash. Samples were collected at time 4 h, 14 h, 24 h, 48 h; freshly isolated monocytes have been considered as control at time 0 h. Total RNA was extracted from cells by RNeasy kit (Qiagen) and reverse-transcribed to cDNA (QuantiTect Reverse Transcription kit, Qiagen). […] Each sample was measured in triplicate and data were analyzed with Pfaffl methods for comparing relative expression data. The measurement of mRNA expression was expressed as fold-increase over control (time 0 h). […]
(§2) Total RNA was extracted with RNeasy kit (Qiagen) according to the manufacturer's instructions. Both integrity and quality of total RNA were checked by agarose gel electrophoresis and the concentration of each RNA sample was assessed spectrophotometrically. Total RNAs were reverse-transcribed to cDNA (QuantiTect Reverse Transcription kit, Qiagen) with oligo-dT and random primers, according to manufacturer's protocol. […]
In general terms: Quantitative PCR measures a nucleic acid by following its amplification.

Another assay has as its system IL-1β. The assay can be described thus: ELISA of IL-1β in medium of LPS-stimulated monocytes. In kind it is cell-based, human. The settings on record: 300 μM. The procedure: FIG. 5—The inhibitory effects of GroPIns are also evident at the protein expression level. Purified monocytes (4×10^3 cells/sample) were pre-incubated for 20 min at 37° C. in the absence and presence of 300 μM GroPIns, and then for a further 5 h and 24 h without or with 0.1 μg/ml LPS from E. coli. At the end of this incubation, the levels of TNFα, IL-1β and TxB-2 in the medium were assessed by ELISA. In monocytes alone, the protein concentrations were under the assay detection limits at both the times. The data are representative of three independent experiments performed with cells from different donors. Exposure of monocytes to LPS induced a time-dependent increase in the […] levels of all of the cytokines analysed.
Cellular levels of TNFα, IL-1β and TxB-2 were quantified by enzyme-linked immunosorbent assay (ELISA). Conditioned medium from monocytes was sedimented by centrifugation at 300×g at room temperature for 10 min to eliminate cellular debris. Then, the supernatant was recovered and the concentrations of TNFα, IL-1β and TxB-2 were assessed by ELISA, as specified by the manufacturers (Amersham Pharmacia Biotech (NJ, USA).

Assay [2] has as its system phospholipase A2IVα (PLA2IVα) gene expression. Description: In vitro model of human inflammation: real-time PCR of PLA2IVα. In kind it is cell-based. The note with it: 300 μM; 4 h, 14 h, 24 h, 48 h; effect mainly at 4 h and 14 h; one donor, preliminary. The method, then:
as §1, §2

Consider `O=P(O)(OCC(O)CO)OC1C(O)C(O)C(O)C(O)C1O` (stereo not shown) [GroPIns, glycerophosphoinositol], for which, in assay [1], the “IκB-α mRNA expression” value is reported as “affected the expression of IκB-α”. Also, the “level of IL-1β in the medium” value in the assay with IL-1β (0.1 μg/ml LPS for 5 h) is recorded as “very small effects”; in the assay on IL-1β (0.1 μg/ml LPS for 24 h) it was “significantly reduced”. For the same molecule, the “PLA2IVα mRNA expression” value in assay [2] is “hampered the expression”.
